Assay results reported in patent publication US20040023295A1, “Methods and systems for analyzing complex biological systems” (priority 2001, published 2004).

System: Saccharomyces cerevisiae wild type strain BY4743
Assay: Yeast azole drug experiment AF1: metabolite analysis (GC-MS, LC-MS)
Format: cell-based

Structure (SMILES): C[C@@H]1[C@H](O)[C@@H](C)/C=C/C=C/C=C/C=C/C=C/C=C/C=C/[C@H](O[C@@H]2O[C@H](C)[C@@H](O)[C@H](N)[C@@H]2O)C[C@@H]2O[C@](O)(C[C@@H](O)C[C@@H](O)[C@H](O)CC[C@@H](O)C[C@@H](O)CC(=O)O[C@H]1C)C[C@H](O)[C@H]2C(=O)O [Amphoteracin B]
- Fold Change of metabolite 5hydroxyL-tryptophan (platform nLC, p-Value 1): 0
- Fold Change of metabolite 6-benzylaminopurine (platform nLC, p-Value 1): 0
- Fold Change of metabolite NacetylD-glucosamine (platform nLC, p-Value 1): 0
- Fold Change of metabolite NacetylL-ornithine (platform nLC, p-Value 1): 0
- Fold Change of metabolite abscisic acid (platform nLC, p-Value 1): 0
- Fold Change of metabolite adenine (platform nLC, p-Value 1): 0
- Fold Change of metabolite adenosine (platform nLC, p-Value 1): 0
- Fold Change of metabolite anthranilic acid (platform nLC, p-Value 1): 0
- Fold Change of metabolite argininosuccinate (platform nLC, p-Value 1): 0
- Fold Change of metabolite benzoic acid (platform nLC, p-Value 1): 0
- Fold Change of metabolite catechol (platform nLC, p-Value 1): 0
- Fold Change of metabolite cinnamic acid (platform nLC, p-Value 1): 0
- Fold Change of metabolite citricanoic/itaconi (platform nLC, p-Value 1): 0
- Fold Change of metabolite coumaric acid (platform nLC, p-Value 1): 0
- Fold Change of metabolite cytosine (platform nLC, p-Value 1): 0
- Fold Change of metabolite diaminopimelic acid (platform nLC, p-Value 1): 0
- Fold Change of metabolite dihydrofolic acid (platform nLC, p-Value 1): 0
- Fold Change of metabolite estrone (platform nLC, p-Value 1): 0
- Fold Change of metabolite farnesol (platform nLC, p-Value 1): 0
- Fold Change of metabolite folic acid (platform nLC, p-Value 1): 0
- Fold Change of metabolite gibberellic (platform nLC, p-Value 1): 0
- Fold Change of metabolite guanine (platform nLC, p-Value 1): 0
- Fold Change of metabolite histidine (platform nLC, p-Value 1): 0
- Fold Change of metabolite homogentisic/uric (platform nLC, p-Value 1): 0
- Fold Change of metabolite hydrocortisone (platform nLC, p-Value 1): 0
- Fold Change of metabolite indole3-pyruvic acid (platform nLC, p-Value 1): 0
- Fold Change of metabolite jasmonic acid (platform nLC, p-Value 1): 0
- Fold Change of metabolite luteolin (platform nLC, p-Value 1): 0
- Fold Change of metabolite malonic acid (platform nLC, p-Value 1): 0
- Fold Change of metabolite methionine (platform nLC, p-Value 1): 0
- Fold Change of metabolite phenylpyruvic acid (platform nLC, p-Value 1): 0
- Fold Change of metabolite phosphoenolpyruvate (platform nLC, p-Value 1): 0
- Fold Change of metabolite pinitol (platform nLC, p-Value 1): 0
- Fold Change of metabolite porphobilinogen (platform nLC, p-Value 1): 0
- Fold Change of metabolite retinoic acid (platform nLC, p-Value 1): 0
- Fold Change of metabolite salicylic/HObenzoic (platform nLC, p-Value 1): 0
- Fold Change of metabolite shikimic acid (platform nLC, p-Value 1): 0
- Fold Change of metabolite sinapinic acid (platform nLC, p-Value 1): 0
- Fold Change of metabolite thymine (platform nLC, p-Value 1): 0
- Fold Change of metabolite DL-aminoadipic acid (platform pLC, p-Value 0.229215472): 0.4703
- Fold Change of metabolite mevalonic lactone (platform pLC, p-Value 0.251617022): −0.4606
- Fold Change of metabolite methionine (platform pLC, p-Value 0.367502423): 0.3299
- Fold Change of metabolite NacetylL-ornithine (platform pLC, p-Value 0.392871315): 1.319
- Fold Change of metabolite citrulline (platform pLC, p-Value 0.433366283): 1.798
- Fold Change of metabolite proline (platform pLC, p-Value 0.474762121): 0.6707
- Fold Change of metabolite ornithine (platform pLC, p-Value 0.48461244): 0.5049
- Fold Change of metabolite arginine (platform pLC, p-Value 0.522893347): 0.4662
- Fold Change of metabolite asparagine (platform pLC, p-Value 0.526485859): 0.6344
- Fold Change of metabolite alanine/sarcosine (platform pLC, p-Value 0.540255177): 0.2602
- Fold Change of metabolite pipecolic acid (platform pLC, p-Value 0.556385814): 0.5237
- Fold Change of metabolite glutamate (platform pLC, p-Value 0.563874982): 0.4341
- Fold Change of metabolite phenylalanine (platform pLC, p-Value 0.573569375): 0.4036
- Fold Change of metabolite mannitol (platform pLC, p-Value 0.575742486): 0.4543
- Fold Change of metabolite glutamine/lysine (platform pLC, p-Value 0.618892728): 0.3981
- Fold Change of metabolite aspartic acid (platform pLC, p-Value 0.626001257): 0.3594
- Fold Change of metabolite threonine/homoserin (platform pLC, p-Value 0.668114613): 0.3145
- Fold Change of metabolite serine (platform pLC, p-Value 0.716422123): 0.2011
- Fold Change of metabolite leucine/isoleucine/ (platform pLC, p-Value 0.723852356): 0.2746
- Fold Change of metabolite hypoxanthine (platform pLC, p-Value 0.74082632): 0.2057
- Fold Change of metabolite pyridoxine (platform pLC, p-Value 0.776529987): −0.1684
- Fold Change of metabolite guanosine (platform pLC, p-Value 0.886514477): 0.7598
- Fold Change of metabolite selenoDL-methionine (platform pLC, p-Value 0.888275646): 1.178
- Fold Change of metabolite adenine (platform pLC, p-Value 0.892253251): 0.1153
- Fold Change of metabolite 4ambutyrate/dimglyc (platform pLC, p-Value 0.920009792): 0.01279
- Fold Change of metabolite glutathione (platform pLC, p-Value 0.951676383): −0.03348
- Fold Change of metabolite 4-aminobenzoic acid (platform pLC, p-Value 1): 0
- Fold Change of metabolite 4-methylcatechol (platform pLC, p-Value 1): 0
- Fold Change of metabolite 5hydroxyL-tryptophan (platform pLC, p-Value 1): 0
- Fold Change of metabolite 6benzylaminopurine (platform pLC, p-Value 1): 0
- Fold Change of metabolite NacetylD-glucosamine (platform pLC, p-Value 1): 0
- Fold Change of metabolite NacetylL-glutamate (platform pLC, p-Value 1): 0
- Fold Change of metabolite abscisic acid (platform pLC, p-Value 1): 0
- Fold Change of metabolite adenosine (platform pLC, p-Value 1): 0
- Fold Change of metabolite allantoic acid (platform pLC, p-Value 1): 0
- Fold Change of metabolite anthranilic acid (platform pLC, p-Value 1): 0
- Fold Change of metabolite argininosuccinate (platform pLC, p-Value 1): 0
- Fold Change of metabolite biotin (platform pLC, p-Value 1): 0
- Fold Change of metabolite caffeine (platform pLC, p-Value 1): 0
- Fold Change of metabolite citric acid TME (platform pLC, p-Value 1): 0
- Fold Change of metabolite cytidine (platform pLC, p-Value 1): 0
- Fold Change of metabolite cytosine (platform pLC, p-Value 1): 0
- Fold Change of metabolite diaminopimelic acid (platform pLC, p-Value 1): 0
- Fold Change of metabolite dihydrofolic acid (platform pLC, p-Value 1): 0
- Fold Change of metabolite dipicolinic acid (platform pLC, p-Value 1): 0
- Fold Change of metabolite folic acid (platform pLC, p-Value 1): 0
- Fold Change of metabolite glucosamine (platform pLC, p-Value 1): 0
- Fold Change of metabolite glucosamine6PO4 (platform pLC, p-Value 1): 0
- Fold Change of metabolite histidine (platform pLC, p-Value 1): 0
- Fold Change of metabolite hydrocortisone (platform pLC, p-Value 1): 0
- Fold Change of metabolite itaconic acid dimes (platform pLC, p-Value 1): 0
- Fold Change of metabolite luteolin (platform pLC, p-Value 1): 0
- Fold Change of metabolite niacinamide (platform pLC, p-Value 1): 0
- Fold Change of metabolite nopaline (platform pLC, p-Value 1): 0
- Fold Change of metabolite phosphoenolpyruvate (platform pLC, p-Value 1): 0
- Fold Change of metabolite progesterone (platform pLC, p-Value 1): 0
- Fold Change of metabolite riboflavin (platform pLC, p-Value 1): 0
- Fold Change of metabolite sugar-phosphate (platform pLC, p-Value 1): 0
- Fold Change of metabolite thiamine (platform pLC, p-Value 1): 0
- Fold Change of metabolite thymine (platform pLC, p-Value 1): 0
- Fold Change of metabolite tryptophan (platform pLC, p-Value 1): 0
- Fold Change of metabolite nicotinic acid (platform pLC, p-Value 7.53474E−05): −0.9989
